In patent publication US8247211B2, “Glycopeptide antibiotics” (American Cyanamid Company, priority 2001, dated 2012):

How the values were obtained:
Experiment in all cases: In vitro antibacterial evaluation: minimum inhibitory concentration (MIC), broth dilution method
Assay type in all cases: cell-based
Details in all cases: 18 hours at 35° C.
Staphylococcus sp. = test system: Staphylococcus sp.
In short: (§1)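 Values are minimum inhibitory concentrations, meaning the smallest antibiotic concentration that stops growth of the organism. They come from broth dilution in Muller-Hinton II […] per NCCLS guidance (M7-A2), using 5×10^5 CFU/mL and concentrations from 64 to 0.06 μg/mL.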

Escherichia coli = test system: Escherichia coli
In short: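 An MIC is reported for each organism as the least concentration giving inhibition, using broth dilution over 64-0.06 μg/mL with a 5×10^5 CFU/mL inoculum.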

Enterococcus sp. = test system: Enterococcus sp.
In short: as §1

Streptococcus sp. = test system: Streptococcus sp.
In short: as §1

Substance: α-O-[(N-Methyl-2-methylpropylamino)carbonyl]-cyclo[glycyl-β-methylphenylalanyl-O-(4-O-hexopyranosylhexopyranosyl)tyrosyl-3-(2-iminoimidazolidin-4-yl)seryl-3-(3-hexopyranosyl-2-iminoimidazolidin-4-yl)serylseryl] [Example 255]
- MIC Coagulase Negative Staphylococcus (GC 4547) (Staphylococcus sp.; Coagulase Negative Staphylococcus (GC 4547)): 32 µg/mL
- MIC Coagulase Negative Staphylococcus (GC 4548) (Staphylococcus sp.; Coagulase Negative Staphylococcus (GC 4548)): 64 µg/mL
- MIC Coagulase Negative Staphylococcus (GC 4549) (Staphylococcus sp.; Coagulase Negative Staphylococcus (GC 4549)): 32 µg/mL
- MIC Coagulase Negative Staphylococcus (GC 4551) (Staphylococcus sp.; Coagulase Negative Staphylococcus (GC 4551)): 64 µg/mL
- MIC Coagulase Negative Staphylococcus (GC 6257) (Staphylococcus sp.; Coagulase Negative Staphylococcus (GC 6257)): 32 µg/mL
- MIC Staphylococcus aureus (ATCC 29213) (Staphylococcus sp.; Staphylococcus aureus (ATCC 29213)): >0.5 µg/mL
- MIC Staphylococcus aureus (GC 1131) (Staphylococcus sp.; Staphylococcus aureus (GC 1131)): >0.5 µg/mL
- MIC Staphylococcus aureus (GC 3051) (Staphylococcus sp.; Staphylococcus aureus (GC 3051)): 0.5 µg/mL
- MIC Staphylococcus aureus (GC 3053) (Staphylococcus sp.; Staphylococcus aureus (GC 3053)): 0.5 µg/mL
- MIC Staphylococcus aureus (GC 4541) (Staphylococcus sp.; Staphylococcus aureus (GC 4541)): 0.5 µg/mL
- MIC Staphylococcus aureus (GC 4542) (Staphylococcus sp.; Staphylococcus aureus (GC 4542)): 0.5 µg/mL
- MIC Staphylococcus aureus (GC 4544) (Staphylococcus sp.; Staphylococcus aureus (GC 4544)): 0.5 µg/mL
- MIC Staphylococcus aureus (GC 4545) (Staphylococcus sp.; Staphylococcus aureus (GC 4545)): 0.5 µg/mL
- MIC Staphylococcus aureus-SMITH (GC 4543) (Staphylococcus sp.; Staphylococcus aureus-SMITH (GC 4543)): 0.5 µg/mL
- MIC Staphylococcus haemolyticus (GC 4546) (Staphylococcus sp.; Staphylococcus haemolyticus (GC 4546)): 32 µg/mL
- MIC Staphylococcus aureus (ATCC 29213) (Staphylococcus sp.; broth dilution, strain ATCC 29213): >0.5 µg/mL
- MIC Staphylococcus aureus (GC 1131) (Staphylococcus sp.; broth dilution, strain GC 1131): >0.5 µg/mL
- MIC Staphylococcus aureus (GC 3051) (Staphylococcus sp.; broth dilution, strain GC 3051): 0.5 µg/mL
- MIC Staphylococcus aureus (GC 3053) (Staphylococcus sp.; broth dilution, strain GC 3053): 0.5 µg/mL
- MIC Staphylococcus aureus (GC 4541) (Staphylococcus sp.; broth dilution, strain GC 4541): 0.5 µg/mL
- MIC Staphylococcus aureus (GC 4542) (Staphylococcus sp.; broth dilution, strain GC 4542): 0.5 µg/mL
- MIC Staphylococcus aureus-SMITH (GC 4543) (Staphylococcus sp.; broth dilution, strain GC 4543): 0.5 µg/mL
- MIC Staphylococcus aureus (GC 4544) (Staphylococcus sp.; broth dilution, strain GC 4544): 0.5 µg/mL
- MIC Staphylococcus aureus (GC 4545) (Staphylococcus sp.; broth dilution, strain GC 4545): 0.5 µg/mL
- MIC Staphylococcus haemolyticus (GC 4546) (Staphylococcus sp.; broth dilution, strain GC 4546): 32 µg/mL
- MIC Coagulase Negative Staphylococcus (GC 4547) (Staphylococcus sp.; broth dilution, strain GC 4547): 32 µg/mL
- MIC Coagulase Negative Staphylococcus (GC 4548) (Staphylococcus sp.; broth dilution, strain GC 4548): 64 µg/mL
- MIC Coagulase Negative Staphylococcus (GC 4549) (Staphylococcus sp.; broth dilution, strain GC 4549): 32 µg/mL
- MIC Coagulase Negative Staphylococcus (GC 4551) (Staphylococcus sp.; broth dilution, strain GC 4551): 64 µg/mL
- MIC Coagulase Negative Staphylococcus (GC 6257) (Staphylococcus sp.; broth dilution, strain GC 6257): 32 µg/mL
- MIC Escherichia coli (ATCC 25922) (Escherichia coli; Escherichia coli (ATCC 25922)): >0.5 µg/mL
- MIC Escherichia coli (GC 4559) (Escherichia coli; Escherichia coli (GC 4559)): >0.5 µg/mL
- MIC Escherichia coli (GC 4560) (Escherichia coli; Escherichia coli (GC 4560)): 0.5 µg/mL
- MIC Enterococcus avium (GC 4558) (Enterococcus sp.; Enterococcus avium (GC 4558)): >0.5 µg/mL
- MIC Enterococcus faecalis (ATCC 29212) (Enterococcus sp.; Enterococcus faecalis (ATCC 29212)): >0.5 µg/mL
- MIC Enterococcus faecalis (GC 2242) (Enterococcus sp.; Enterococcus faecalis (GC 2242)): >0.5 µg/mL
- MIC Enterococcus faecalis (GC 2691) (Enterococcus sp.; Enterococcus faecalis (GC 2691)): >0.5 µg/mL
- MIC Enterococcus faecalis (GC 3059) (Enterococcus sp.; Enterococcus faecalis (GC 3059)): >0.5 µg/mL
- MIC Enterococcus faecalis (GC 4552) (Enterococcus sp.; Enterococcus faecalis (GC 4552)): >0.5 µg/mL
- MIC Enterococcus faecalis (GC 4553) (Enterococcus sp.; Enterococcus faecalis (GC 4553)): >0.5 µg/mL
- MIC Enterococcus faecalis (GC 4554) (Enterococcus sp.; Enterococcus faecalis (GC 4554)): >0.5 µg/mL
- MIC Enterococcus faecalis (GC 6189) (Enterococcus sp.; Enterococcus faecalis (GC 6189)): >0.5 µg/mL
- MIC Enterococcus faecium (GC 2243) (Enterococcus sp.; Enterococcus faecium (GC 2243)): >64 µg/mL
- MIC Enterococcus faecium (GC 4556) (Enterococcus sp.; Enterococcus faecium (GC 4556)): >64 µg/mL
- MIC Enterococcus faecium (GC 4557) (Enterococcus sp.; Enterococcus faecium (GC 4557)): 16 µg/mL
- MIC Enterococcus faecalis (ATCC 29212) (Enterococcus sp.; broth dilution, strain ATCC 29212): >0.5 µg/mL
- MIC Enterococcus faecalis (GC 2242) (Enterococcus sp.; broth dilution, strain GC 2242): >0.5 µg/mL
- MIC Enterococcus faecium (GC 2243) (Enterococcus sp.; broth dilution, strain GC 2243): >64 µg/mL
- MIC Enterococcus faecalis (GC 2691) (Enterococcus sp.; broth dilution, strain GC 2691): >0.5 µg/mL
- MIC Enterococcus faecalis (GC 3059) (Enterococcus sp.; broth dilution, strain GC 3059): >0.5 µg/mL
- MIC Enterococcus faecalis (GC 4552) (Enterococcus sp.; broth dilution, strain GC 4552): >0.5 µg/mL
- MIC Enterococcus faecalis (GC 4553) (Enterococcus sp.; broth dilution, strain GC 4553): >0.5 µg/mL
- MIC Enterococcus faecalis (GC 4554) (Enterococcus sp.; broth dilution, strain GC 4554): >0.5 µg/mL
- MIC Enterococcus faecium (GC 4556) (Enterococcus sp.; broth dilution, strain GC 4556): >64 µg/mL
- MIC Enterococcus faecium (GC 4557) (Enterococcus sp.; broth dilution, strain GC 4557): 16 µg/mL
- MIC Enterococcus avium (GC 4558) (Enterococcus sp.; broth dilution, strain GC 4558): >0.5 µg/mL
- MIC Enterococcus faecalis (GC 6189) (Enterococcus sp.; broth dilution, strain GC 6189): >0.5 µg/mL
- MIC Streptococcus agalactiae (GC 4564) (Streptococcus sp.; Streptococcus agalactiae (GC 4564)): 32 µg/mL
- MIC Streptococcus pneumoniae (GC 4565) (Streptococcus sp.; Streptococcus pneumoniae (GC 4565)): 16 µg/mL
- MIC Streptococcus pyogenes (GC 4563) (Streptococcus sp.; Streptococcus pyogenes (GC 4563)): 16 µg/mL
- MIC Streptococcus pyogenes (GC 4563) (Streptococcus sp.; broth dilution, strain GC 4563): 16 µg/mL
- MIC Streptococcus agalactiae (GC 4564) (Streptococcus sp.; broth dilution, strain GC 4564): 32 µg/mL
- MIC Streptococcus pneumoniae (GC 4565) (Streptococcus sp.; broth dilution, strain GC 4565): 16 µg/mL
